Data from article PMC3785365 (Clinical cancer research : an official journal of the …, 2011).

Legend:
[1] = tested on: phosphorylation of S6 and 4E-BP1; experiment: Western blot of mTOR signaling; format: cell-based, human; conditions: glioma cells
P110α = P110α (Homo sapiens, UniProt P42336); conditions: cited from earlier work
p110γ = conditions: cited from earlier work
p110δ = conditions: cited from earlier work
KDR = KDR (Homo sapiens, UniProt P35968); experiment: Biochemical kinase assay, KDR
Chain of KDR (P35968 20-1356, species assumed): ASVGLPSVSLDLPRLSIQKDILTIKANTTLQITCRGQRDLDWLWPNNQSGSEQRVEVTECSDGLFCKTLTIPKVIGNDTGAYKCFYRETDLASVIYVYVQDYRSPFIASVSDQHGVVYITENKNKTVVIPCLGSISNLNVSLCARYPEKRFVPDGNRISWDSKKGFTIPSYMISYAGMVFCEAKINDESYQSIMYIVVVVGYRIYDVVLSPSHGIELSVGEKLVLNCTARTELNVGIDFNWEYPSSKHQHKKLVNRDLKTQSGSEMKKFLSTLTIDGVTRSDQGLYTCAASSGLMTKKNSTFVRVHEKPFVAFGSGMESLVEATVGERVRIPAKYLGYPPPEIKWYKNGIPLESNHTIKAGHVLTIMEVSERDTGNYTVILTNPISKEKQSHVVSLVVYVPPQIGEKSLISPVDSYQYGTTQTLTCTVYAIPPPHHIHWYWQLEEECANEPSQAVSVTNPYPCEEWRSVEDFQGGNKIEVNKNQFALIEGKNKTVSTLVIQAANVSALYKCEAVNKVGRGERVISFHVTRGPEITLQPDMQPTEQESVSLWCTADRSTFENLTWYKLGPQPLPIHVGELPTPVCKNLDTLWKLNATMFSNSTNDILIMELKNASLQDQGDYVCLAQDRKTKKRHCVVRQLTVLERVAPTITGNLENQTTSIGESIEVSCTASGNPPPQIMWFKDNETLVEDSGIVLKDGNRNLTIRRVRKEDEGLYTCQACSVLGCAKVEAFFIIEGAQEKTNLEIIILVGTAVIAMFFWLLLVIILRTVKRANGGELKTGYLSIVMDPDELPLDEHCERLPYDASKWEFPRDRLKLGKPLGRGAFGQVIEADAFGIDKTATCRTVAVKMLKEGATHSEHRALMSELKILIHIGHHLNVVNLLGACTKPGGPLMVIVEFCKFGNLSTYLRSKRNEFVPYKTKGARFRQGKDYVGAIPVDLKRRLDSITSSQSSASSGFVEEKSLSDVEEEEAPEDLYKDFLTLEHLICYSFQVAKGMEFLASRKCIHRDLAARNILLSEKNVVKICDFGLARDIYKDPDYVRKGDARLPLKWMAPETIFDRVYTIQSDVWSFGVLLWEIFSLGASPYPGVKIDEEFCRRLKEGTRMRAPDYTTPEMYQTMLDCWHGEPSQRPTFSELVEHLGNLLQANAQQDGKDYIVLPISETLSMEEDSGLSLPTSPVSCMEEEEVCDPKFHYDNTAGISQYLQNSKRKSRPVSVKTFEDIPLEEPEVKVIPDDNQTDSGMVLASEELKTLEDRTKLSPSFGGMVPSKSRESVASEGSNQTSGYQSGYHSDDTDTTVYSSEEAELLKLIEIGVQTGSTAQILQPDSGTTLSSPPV

PDK1 = target: T1, PDK1 (Homo sapiens, UniProt O15530); experiment: Biochemical kinase assay, PDK1
T1 sequence (O15530 1-556): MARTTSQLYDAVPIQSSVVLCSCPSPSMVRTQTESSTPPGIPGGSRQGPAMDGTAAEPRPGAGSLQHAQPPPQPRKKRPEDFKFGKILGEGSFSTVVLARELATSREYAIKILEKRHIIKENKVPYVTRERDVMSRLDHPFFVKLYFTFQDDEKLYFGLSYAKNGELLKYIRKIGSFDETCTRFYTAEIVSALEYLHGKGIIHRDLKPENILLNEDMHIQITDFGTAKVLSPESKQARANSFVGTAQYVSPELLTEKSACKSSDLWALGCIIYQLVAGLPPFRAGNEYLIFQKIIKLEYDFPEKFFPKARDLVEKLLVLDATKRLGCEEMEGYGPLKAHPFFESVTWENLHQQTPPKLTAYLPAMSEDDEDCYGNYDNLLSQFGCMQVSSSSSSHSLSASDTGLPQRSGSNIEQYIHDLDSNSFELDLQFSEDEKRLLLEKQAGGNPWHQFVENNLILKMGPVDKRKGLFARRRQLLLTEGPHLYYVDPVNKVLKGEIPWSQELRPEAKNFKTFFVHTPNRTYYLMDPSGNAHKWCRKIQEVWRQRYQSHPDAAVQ

c-Met = c-Met (Homo sapiens, UniProt P08581); experiment: Biochemical kinase assay, c-Met
Chain of c-Met (P08581 25-1390): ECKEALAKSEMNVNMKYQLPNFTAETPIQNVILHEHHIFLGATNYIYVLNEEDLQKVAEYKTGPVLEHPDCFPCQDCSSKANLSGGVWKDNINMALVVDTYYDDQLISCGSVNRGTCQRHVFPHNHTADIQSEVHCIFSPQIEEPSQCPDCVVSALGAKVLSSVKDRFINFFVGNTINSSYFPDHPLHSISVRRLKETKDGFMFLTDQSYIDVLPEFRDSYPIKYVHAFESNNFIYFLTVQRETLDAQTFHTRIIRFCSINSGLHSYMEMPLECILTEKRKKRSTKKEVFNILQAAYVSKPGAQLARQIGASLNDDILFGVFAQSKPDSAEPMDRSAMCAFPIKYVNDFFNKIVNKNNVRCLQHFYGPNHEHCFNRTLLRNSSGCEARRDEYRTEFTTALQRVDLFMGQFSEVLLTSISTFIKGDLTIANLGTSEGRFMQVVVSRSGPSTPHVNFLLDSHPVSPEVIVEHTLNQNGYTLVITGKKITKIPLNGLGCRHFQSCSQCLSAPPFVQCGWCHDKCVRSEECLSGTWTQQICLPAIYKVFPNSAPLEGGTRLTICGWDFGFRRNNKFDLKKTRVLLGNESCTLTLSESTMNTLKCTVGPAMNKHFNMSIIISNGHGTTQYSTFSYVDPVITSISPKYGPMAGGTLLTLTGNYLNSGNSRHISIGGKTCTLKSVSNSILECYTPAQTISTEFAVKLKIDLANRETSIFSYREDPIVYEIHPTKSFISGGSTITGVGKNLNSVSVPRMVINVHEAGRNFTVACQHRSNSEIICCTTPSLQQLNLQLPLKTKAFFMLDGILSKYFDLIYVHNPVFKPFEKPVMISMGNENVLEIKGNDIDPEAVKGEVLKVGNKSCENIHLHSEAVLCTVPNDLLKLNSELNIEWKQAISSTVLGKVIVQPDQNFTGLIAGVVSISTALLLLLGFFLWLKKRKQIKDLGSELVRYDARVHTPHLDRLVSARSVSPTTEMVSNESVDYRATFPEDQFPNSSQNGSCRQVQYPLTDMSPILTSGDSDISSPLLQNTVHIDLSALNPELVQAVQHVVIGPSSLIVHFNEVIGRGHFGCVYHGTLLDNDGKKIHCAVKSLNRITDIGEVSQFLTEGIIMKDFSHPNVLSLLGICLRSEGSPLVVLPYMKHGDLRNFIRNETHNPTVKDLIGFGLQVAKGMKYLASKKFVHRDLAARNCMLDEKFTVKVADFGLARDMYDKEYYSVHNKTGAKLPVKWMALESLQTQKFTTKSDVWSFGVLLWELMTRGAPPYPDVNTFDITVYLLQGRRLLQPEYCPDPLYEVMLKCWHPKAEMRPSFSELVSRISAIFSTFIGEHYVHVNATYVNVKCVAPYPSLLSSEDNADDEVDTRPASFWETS

FGFR3 = FGFR3 (Homo sapiens, UniProt P22607); experiment: Biochemical kinase assay, FGFR3
Chain of FGFR3 (P22607 23-806, species assumed): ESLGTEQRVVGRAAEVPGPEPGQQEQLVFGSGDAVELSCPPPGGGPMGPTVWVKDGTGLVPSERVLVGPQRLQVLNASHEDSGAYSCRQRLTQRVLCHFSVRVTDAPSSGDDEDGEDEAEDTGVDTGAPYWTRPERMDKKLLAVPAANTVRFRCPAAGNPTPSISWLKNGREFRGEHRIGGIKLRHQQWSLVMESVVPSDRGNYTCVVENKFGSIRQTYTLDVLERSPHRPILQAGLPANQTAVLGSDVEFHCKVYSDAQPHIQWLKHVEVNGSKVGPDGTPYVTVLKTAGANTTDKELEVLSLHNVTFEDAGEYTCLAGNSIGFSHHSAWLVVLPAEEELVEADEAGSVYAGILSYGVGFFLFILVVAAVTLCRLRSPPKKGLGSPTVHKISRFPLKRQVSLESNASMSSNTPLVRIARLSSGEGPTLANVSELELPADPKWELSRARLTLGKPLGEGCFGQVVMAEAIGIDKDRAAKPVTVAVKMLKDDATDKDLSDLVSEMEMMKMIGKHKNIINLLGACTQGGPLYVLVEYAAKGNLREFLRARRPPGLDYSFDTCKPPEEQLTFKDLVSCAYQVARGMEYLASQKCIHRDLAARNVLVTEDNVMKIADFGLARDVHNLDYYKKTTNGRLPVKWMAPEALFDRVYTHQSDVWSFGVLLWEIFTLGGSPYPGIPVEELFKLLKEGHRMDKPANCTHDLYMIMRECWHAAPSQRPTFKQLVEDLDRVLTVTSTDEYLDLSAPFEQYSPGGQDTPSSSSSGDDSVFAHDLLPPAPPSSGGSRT

Tek = Tek (Homo sapiens, UniProt Q02763); experiment: Biochemical kinase assay, Tek
Chain of Tek (Q02763 23-1124, species assumed): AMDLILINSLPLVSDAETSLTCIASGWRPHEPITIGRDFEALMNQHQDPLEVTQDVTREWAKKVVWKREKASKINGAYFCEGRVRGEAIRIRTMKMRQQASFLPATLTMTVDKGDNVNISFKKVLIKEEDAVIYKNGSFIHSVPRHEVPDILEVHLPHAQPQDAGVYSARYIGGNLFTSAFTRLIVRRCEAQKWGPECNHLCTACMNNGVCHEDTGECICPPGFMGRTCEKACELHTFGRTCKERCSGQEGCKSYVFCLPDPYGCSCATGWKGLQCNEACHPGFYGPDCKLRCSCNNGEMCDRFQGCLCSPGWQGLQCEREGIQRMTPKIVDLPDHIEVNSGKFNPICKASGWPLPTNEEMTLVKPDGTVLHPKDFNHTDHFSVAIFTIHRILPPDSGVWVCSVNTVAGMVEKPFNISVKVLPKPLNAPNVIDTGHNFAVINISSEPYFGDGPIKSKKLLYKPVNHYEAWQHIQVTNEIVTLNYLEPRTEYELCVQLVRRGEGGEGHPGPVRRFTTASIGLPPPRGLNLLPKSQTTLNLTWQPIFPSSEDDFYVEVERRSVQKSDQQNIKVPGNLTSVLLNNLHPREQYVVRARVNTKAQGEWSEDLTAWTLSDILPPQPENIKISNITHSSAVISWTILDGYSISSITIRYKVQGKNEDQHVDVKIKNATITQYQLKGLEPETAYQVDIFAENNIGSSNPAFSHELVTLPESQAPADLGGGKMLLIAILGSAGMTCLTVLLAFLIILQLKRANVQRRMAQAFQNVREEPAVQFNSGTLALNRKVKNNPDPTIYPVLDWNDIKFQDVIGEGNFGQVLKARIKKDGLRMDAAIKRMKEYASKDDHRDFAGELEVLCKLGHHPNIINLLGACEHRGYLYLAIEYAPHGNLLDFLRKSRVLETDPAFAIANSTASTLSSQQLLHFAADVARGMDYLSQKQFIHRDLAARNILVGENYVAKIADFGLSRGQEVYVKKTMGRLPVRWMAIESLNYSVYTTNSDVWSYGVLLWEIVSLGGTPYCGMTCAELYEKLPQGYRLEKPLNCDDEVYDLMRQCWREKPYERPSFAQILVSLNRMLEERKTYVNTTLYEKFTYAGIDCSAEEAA

U87 cells = experiment: Mitotic index; format: cell-based, human; conditions: U87 (p53-wt); 2 μm, 72 hours; control cells 1% to 3%
D54 cells = experiment: Mitotic index; format: cell-based, human; conditions: D54 (p53-wt); 2 μm, 72 hours; control cells 1% to 3%
U343 cells = experiment: Mitotic index; format: cell-based, human; conditions: U343 (p53-wt); 2 μm, 72 hours; control cells 1% to 3%
U251 cells = experiment: Mitotic index; format: cell-based, human; conditions: U251 (p53-mutant/deleted); 2 μm, 72 hours; control cells 1% to 3%
LN18 cells = experiment: Mitotic index; format: cell-based, human; conditions: LN18 (p53-mutant/deleted); 2 μm, 72 hours; control cells 1% to 3%
LN229 cells = experiment: Mitotic index; format: cell-based, human; conditions: LN229 (p53-mutant/deleted); 2 μm, 72 hours; control cells 1% to 3%
[2] = tested on: U87 intracranial xenografts; experiment: Intracranial U87 glioma xenograft survival model; format: in vivo; conditions: nude mice, control 26 days
[3] = Tolerability in treated tumor-bearing mice; format: in vivo; conditions: 20 or 40 mg/kg oral
glioma cell lines = experiment: Annexin V apoptosis assay by flow cytometry; conditions: 72 hours
phosphorylation of Akt = experiment: Inhibition of Akt phosphorylation by immunoblot in U87MG and LN18 cells; conditions: Homo sapiens, read-out: IC50 for inhibiting phosphorylation of Akt

Cn1c(=O)n(-c2ccc(C(C)(C)C#N)cc2)c2c3cc(-c4cnc5ccccc5c4)ccc3ncc21 [NVP-BEZ235, reference compound]
effect on phosphorylation of S6 and 4E-BP1 [1]: nearly complete dephosphorylation of both S6 and 4E-BP1

C=CCN(/C=C1/C(=O)O[C@H](COC)[C@@]2(C)C1=C(O)C(=O)C1=C2[C@H](OC(C)=O)C[C@]2(C)C(=O)CC[C@@H]12)CC=C [PX-866]
IC50 (P110α): low nanomolar range
IC50 (p110γ): low nanomolar range
IC50 (p110δ): low nanomolar range

Nc1cc(C(F)(F)F)c(-c2cc(N3CCOCC3)nc(N3CCOCC3)n2)cn1 [NVP-BKM120]
IC50 (KDR): > 10 µM
IC50 (PDK1): > 10 µM
IC50 (c-Met): > 10 µM
IC50 (FGFR3): > 10 µM
IC50 (Tek): > 10 µM
cells in mitosis (phospho-H3 positive) after treatment (U87 cells): 2.6%
cells in mitosis (phospho-H3 positive) after treatment (D54 cells): 2.8%
cells in mitosis (phospho-H3 positive) after treatment (U343 cells): 3%
cells in mitosis (phospho-H3 positive) after treatment (U251 cells): 12.4%
cells in mitosis (phospho-H3 positive) after treatment (LN18 cells): 7.3%
cells in mitosis (phospho-H3 positive) after treatment (LN229 cells): 7.9%
median survival time ([2]; 20 mg/kg oral): 38 days
median survival time ([2]; 40 mg/kg oral): 48 days
adverse effects with respect to body weight, water intake, and general activity [3]: no obvious signs of adverse effects
effect on phosphorylation of S6 and 4E-BP1 [1]: minor dephosphorylation only of the S6 protein
change of the percentage of apoptosis (Annexin V) (glioma cell lines; p53-mutant/deleted cell lines): 3.98%
change of the percentage of apoptosis (Annexin V) (glioma cell lines; p53-wt cell lines): 14.52%
IC50 (phosphorylation of Akt): 0.5 to 1 µM
